Test results as given in patent publication US20210023074A1, “TREATMENT OF DEMYELINATING DISEASES” (Victoria Link Ltd., priority 2018, published 2021).

Legend:
Format in all cases: in vivo, C57BL/6 mice
[1] = system: infiltrating immune cells (CD45high) in brain of EAE mice; experiment: Immune cell infiltration into the brain of EAE mice (flow cytometry)
Protocol: On day 17, mice were started on daily treatment with vehicle only (Veh) or nalmefene (NaIM) at 0.1 or 0.03 mg/kg by i.p. injection. On day 45 after immunization to induce EAE, mice were culled and immune cells isolated from the brains. Isolation was by Percoll gradient as described in White et al. 2018. Scientific Reports. 8:259. Once isolated, cells were stained with fluorescently labelled antibodies to identify specific immune cell types and analysed by flow cytometry. All infiltrating immune cells were identified by CD45^high expression; CD4 T cells were identified as CD45^highCD4^+, and macrophages as CD45^highCD11b^+Gr-1^−. The relative number of cells is expressed as a ratio to microglia (MG), a brain resident immune cell identified as CD45^mediumCD11b^+. ***p<0.001, **p<0.01, and *p<0.05 by one-way ANOVA with Dunnett's multiple comparison test.
Experimental detail: EAE was induced in female C57BL/6 mice as described in Example 1. […] Once isolated, cells were stained with fluorescently labelled antibodies to identify specific immune cell types and analysed by flow cytometry. […] The relative number of cells is expressed as a ratio to microglia (MG), a brain resident immune cell identified as CD45^mediumCD11b+. ****p<0.0001 and **p<0.01 by one-way ANOVA with Holm-Sidak's multiple comparison test compared to vehicle.

[2] = system: experimental autoimmune encephalomyelitis (EAE) mice; experiment: EAE model of MS, disease score, treatment from day of disease onset (score >1)
Protocol: Experimental detail: EAE was induced in female C57BL/6 mice as described in Example 1. On the day of disease onset (score >1, dotted line), mice were started on daily treatment with vehicle only (Veh) or nalmefene (NaIM) at 0.1, 0.03, 0.01, or 0.003 mg/kg by i.p. injection. […]
(§1) Experimental detail: EAE was induced in female C57BL/6 mice as described in Example 1. On the day of disease onset (score >1, dotted line), mice were treated with vehicle only (daily), nalmefene (0.01 mg/kg by i.p. injection daily), the KOR antagonist norBNI (10 mg/kg by i.p. injection weekly), both nalmefene and norBNI, or the MOR antagonist BFNA (10 mg/kg by i.p. injection weekly).
as §1, with “weekly). The peak disease score during the first EAE episode was recorded, and mice were considered recovered if they received a score <0.5 by day 23 post treatment initiation.” for “weekly).”
Experimental detail: EAE was induced in female C57BL/6 mice as described in Example 1.

[3] = system: lymphocyte populations in the spleen of EAE mice; experiment: Splenocyte flow cytometry in chronic phase of EAE; conditions: 0.01 mg/kg i.p. daily, 27 days post treatment initiation
Protocol: Experimental detail: EAE was induced in female C57BL/6 mice as described in Example 1. On the day of disease onset (score >1), mice were started on daily treatment with vehicle only or nalmefene at 0.01 mg/kg by i.p. injection. During the chronic phase (27 days post treatment initiation), mice were culled and their splenocytes assessed by flow cytometry. The percentage of the major lymphocyte populations were identified using CD4 (CD4 T helper cells), CD8 (CD8 cytotoxic T cells), and B220 (B cells), and expressed as % live leukocytes (i.e. CD45^+ cells). Shown are the means and standard error of individual mice with n=3 (healthy), 4 (vehicle) and 9 (NaIM). No significant differences were found between vehicle and healthy or nalmefene by one-way ANOVA with Holm-Sidak's multiple comparison test.
Experimental detail: EAE was induced in female C57BL/6 mice as described in Figure A. On the day of disease onset (score >1), mice were started on daily treatment with vehicle only or nalmefene at 0.01 mg/kg by i.p. injection. During the chronic phase (27 days post treatment initiation), mice were culled and their splenocytes assessed by flow cytometry. Naïve CD4 T cells (CD4^+CD44^−CD62L^high), effector CD4 T cells (CD4^+CD44^+CD62L^−), and central memory CD4T cells (CD4^+CD44^+CD62L^high) are expressed as % CD4 T cells. “Teff:cm ratio” is the ratio of effector to central memory T cells. […]

[4] = 0.01 mg/kg i.p. daily from disease onset
[5] = 0.003-0.1 mg/kg i.p. daily from disease onset

C=C1CC[C@@]2(O)[C@H]3Cc4ccc(O)c5c4[C@@]2(CCN3CC2CC2)[C@H]1O5 [nalmefene, (4R,4aS,7aS,12bS)-3-(cyclopropylmethyl)-7-methylidene-2,4,5,6,7a,13-hexahydro-1H-4,12-methanobenzofuro[3,2-e]isoquinoline-4a,9-diol]
number of infiltrating immune cells in brain (ratio to microglia) ([1]; 0.03 mg/kg i.p. daily from day 17, day 45): significantly reduced the number of infiltrating immune cells | number of infiltrating immune cells in brain (ratio to microglia) ([1]; 0.03 mg/kg i.p. daily from disease onset, chronic phase (>24 days)): significantly reduced the number of infiltrating immune cells | disease score (recovery from paralysis) [2, 4]: recovery from paralysis, which is complete | peak disease score during first EAE episode [2, 4]: modest but significant effect | percentage of mice recovered (score <0.5 by day 23 post treatment initiation) [2, 4]: all of the mice recover | number of days in recovery [2, 5]: enables a sustained functional recovery | percentage of mice recovered (score <0.5 by day 23 post treatment initiation) [2, 5]: enables full functional recovery | dose showing the most rapid recovery ([2]; i.p. daily from disease onset, replicated in 6 independent experiments): 0.01 mg/kg | disease score ([2]; nalmefene 0.01 mg/kg i.p. daily in the presence of norBNI 10 mg/kg i.p. weekly): effective at reducing disease independently of the KOR | number of days in recovery (sustained recovery) ([2]; nalmefene 0.01 mg/kg i.p. daily, clemastine fumerate 10 mg/kg i.p.): sustained recovery | disease score (functional recovery), comparison nalmefene vs clemastine ([2]; nalmefene 0.01 mg/kg i.p. daily, clemastine fumerate 10 mg/kg i.p., from disease onset): almost complete recovery from paralysis | Teff:cm ratio (effector to central memory CD4 T cells) in spleen [3]: reduced ratio | proportion of major lymphocyte populations in the spleen (CD4, CD8, B220; % live leukocytes) [3]: does not alter the proportion of the major lymphocyte populations in the spleen
